Structures can show the parent of a compound that is named as a salt.
What was measured:
Vero E6 [1] = assay: cytotoxicity relative to untreated cell control; higher = more toxic; details: 72 h, assay detail: uninfected
Experimental: (§1)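 Vero E6 C1008 cells (2e4 cells/well) were treated with a 3-fold dilution series of each drug (monotherapy), with or without live SARS-CoV-2 (propagated original strain, 100 TCID50). After 72 h at 37 °C, viability was read with Viral ToxGlo (ATP luminescence). %Inhibition of virus-induced CPE and %Cytotoxicity (uninfected) were normalised to cell and virus controls. Triplicates. The paper excluded %Inhibition points with >25% cytotoxicity from its curve fits.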

Vero E6 [2] = assay: inhibition of SARS-CoV-2-induced cytopathic effect relative to cell and virus controls; higher = more antiviral protection; details: 72 h, virus: SARS-CoV-2 propagated original strain, 100 TCID50, assay detail: infected
Experimental: as §1

Cc1ccc(NC(=O)c2ccc(CN3CCN(C)CC3)cc2)cc1Nc1nccc(-c2cccnc2)n1 [imatinib mesylate]
Details	cytotoxicity, Vero E6 [1] [%]	inhibition of SARS-CoV-2-induced cytopathic effect, Vero E6 [2] [%]
0.000564503 µM	4.59	0.0871
0.00169351 µM	-0.227	-0.274
0.00508053 µM	-4.57	-1.02
0.0152416 µM	-8.01	-0.646
0.0457247 µM	-4.41	-1.84
0.137174 µM	-4.39	-1.94
0.411523 µM	-6.59	-2
1.23457 µM	-4.79	1.61
3.7037 µM	-6.93	18
11.1111 µM	9.9	102
33.3333 µM	61.8	48.6
100 µM	99.785	-17.3

Cc1ccc(NC(=O)c2ccc(CN3CCN(C)CC3)cc2)cc1Nc1nc(-c2cccnc2)cs1 [masitinib]
Details	cytotoxicity, Vero E6 [1] [%]	inhibition of SARS-CoV-2-induced cytopathic effect, Vero E6 [2] [%]
0.000564503 µM	-15.3	0.87
0.00169351 µM	-17.5	1.03
0.00508053 µM	-21.6	2.14
0.0152416 µM	-16.3	1.2
0.0457247 µM	-19.4	0.66
0.137174 µM	-17.8	0.458
0.411523 µM	-19.8	3.69
1.23457 µM	-15.2	8.75
3.7037 µM	4.4	42.8
11.1111 µM	83.4	18.1
33.3333 µM	99.617	-7.42
100 µM	99.831	-17.86

CCC(CC)COC(=O)[C@H](C)N[P@](=O)(OC[C@H]1O[C@@](C#N)(c2ccc3c(N)ncnn23)[C@H](O)[C@@H]1O)Oc1ccccc1 [remdesivir]
Details	cytotoxicity, Vero E6 [1] [%]	inhibition of SARS-CoV-2-induced cytopathic effect, Vero E6 [2] [%]
0.000564503 µM	-22.9	1.31
0.00169351 µM	-17.3	1.17
0.00508053 µM	-11.8	-0.59
0.0152416 µM	-6.94	-0.693
0.0457247 µM	-6.5	-0.335
0.137174 µM	-4.51	1.45
0.411523 µM	-1.99	6.62
1.23457 µM	-7.93	42.2
3.7037 µM	-2.61	111
11.1111 µM	2.25	108
33.3333 µM	9.25	96.6
100 µM	59.6	44.1

Cc1cccc(C)c1OCC(=O)N[C@@H](Cc1ccccc1)[C@@H](O)C[C@H](Cc1ccccc1)NC(=O)[C@H](C(C)C)N1CCCNC1=O [lopinavir]
Details	cytotoxicity, Vero E6 [1] [%]	inhibition of SARS-CoV-2-induced cytopathic effect, Vero E6 [2] [%]
0.00112901 µM	8.74	2.06
0.00338702 µM	6.74	1.04
0.0101611 µM	-8.25	1.48
0.0304832 µM	-3.94	0.483
0.0914495 µM	-7.05	1.04
0.274348 µM	-5.02	2.11
0.823045 µM	-7.06	1.91
2.46914 µM	-5.88	1.69
7.40741 µM	-25.7	2.75
22.2222 µM	25.9	72.7
66.6667 µM	99.066	-14.47
200 µM	99.504	-14.97

CCc1c2c(nc3ccc(O)cc13)-c1cc3c(c(=O)n1C2)COC(=O)[C@]3(O)CC [SN-38]
Details	cytotoxicity, Vero E6 [1] [%]	inhibition of SARS-CoV-2-induced cytopathic effect, Vero E6 [2] [%]
56.45 pM	-12.2	-1.53
0.000169351 µM	-12.8	-0.815
0.000508053 µM	-9.63	-0.975
0.00152416 µM	-8.98	-2.92
0.00457247 µM	-9.11	-3.61
0.0137174 µM	-9.99	-6.1
0.0411523 µM	5.49	-10.4
0.123457 µM	1.29	-10.9
0.37037 µM	1.32	-11.1
1.11111 µM	6.01	-10.4
3.33333 µM	43.6	-14.8
10 µM	82.6	-17.4

N=C(N)Nc1ccc(C(=O)Oc2ccc3cc(C(=N)N)ccc3c2)cc1 [nafamostat mesylate]
Details	cytotoxicity, Vero E6 [1] [%]	inhibition of SARS-CoV-2-induced cytopathic effect, Vero E6 [2] [%]
56.45 pM	-10.2	1.36
0.000169351 µM	-7.59	0.555
0.000508053 µM	-1.77	1.31
0.00152416 µM	-4.85	0.363
0.00457247 µM	-6	0.453
0.0137174 µM	-9.55	0.391
0.0411523 µM	-7.66	-0.525
0.123457 µM	-5.32	-0.383
0.37037 µM	1.08	0.358
1.11111 µM	-2.6	0.841
3.33333 µM	1.59	0.526
10 µM	-0.485	-0.288
